Experiment [1] concerns the target Acetylcholinesterase (Electrophorus electricus, UniProt O42275). Kind of experiment: Inhibition of electric eel AChE using acetylthiocholine iodide as substrate preincubated for 30 mins followed by substrate addition and measured after 5 mins by DTNB-reagent based Ellman's method. (In general: In Ellman's method for cholinesterases, released thiocholine reacts with DTNB.)

Experiment [2] relates to L1210. Kind of experiment: Cytotoxicity against mouse L1210 cells assessed as inhibition of cell growth. The format is functional, cell-based.
The test system of experiment [3] is KB. Kind of experiment: Cytotoxicity against human KB cells assessed as inhibition of cell growth. Format: functional, cell-based.

Molecules are shown by their SMILES. Bounds are passed on as bounds.

Sequence of Acetylcholinesterase (O42275 whole entry): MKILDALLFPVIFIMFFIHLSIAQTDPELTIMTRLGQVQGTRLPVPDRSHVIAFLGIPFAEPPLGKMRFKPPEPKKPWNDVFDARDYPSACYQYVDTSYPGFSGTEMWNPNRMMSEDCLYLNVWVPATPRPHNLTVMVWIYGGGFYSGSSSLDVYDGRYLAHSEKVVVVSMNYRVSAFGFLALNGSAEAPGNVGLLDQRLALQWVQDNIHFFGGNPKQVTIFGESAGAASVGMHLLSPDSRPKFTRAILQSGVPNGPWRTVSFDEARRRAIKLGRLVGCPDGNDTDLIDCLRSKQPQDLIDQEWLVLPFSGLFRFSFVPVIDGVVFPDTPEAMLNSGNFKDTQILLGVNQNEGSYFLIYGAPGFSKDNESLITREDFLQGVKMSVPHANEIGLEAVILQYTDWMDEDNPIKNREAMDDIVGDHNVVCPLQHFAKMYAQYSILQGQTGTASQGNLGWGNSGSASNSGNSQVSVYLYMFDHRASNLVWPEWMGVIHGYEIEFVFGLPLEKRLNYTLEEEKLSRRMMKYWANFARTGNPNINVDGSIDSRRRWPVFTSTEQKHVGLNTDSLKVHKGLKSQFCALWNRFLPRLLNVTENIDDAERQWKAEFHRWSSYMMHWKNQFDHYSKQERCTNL

As a reminder, the IC50 is the concentration that gives 50% inhibition. In the case of `O[C@@H]1CCCC[N+]23C[C@@H]4C=C5CC/C=C\CCCCN6CC[C@@H]4[C@](CC[C@H]12)(C6)[C@H]53`, the IC50 in experiment [1] is 470 µM; in experiment [2] it was > 10 µg/mL; in experiment [3] it was > 10 µg/mL.

With `O[C@H]1CCCC[N+]23C[C@@H]4C=C5CC/C=C\CCCCN6CC[C@@H]4[C@](CC[C@H]12)(C6)[C@H]53`, the IC50 in experiment [1] was 350 µM; in experiment [2] it was > 10 µg/mL; in experiment [3], > 10 µg/mL.

The values are drawn from ChEMBL document CHEMBL5137118, “Zamamiphidins B and C, Manzamine-Related Alkaloids from an Amphimedon sp. Marine Sponge Collected in Okinawa” (J Nat Prod, 2022).
